Reference: article PMC6486649 (Analytica chimica acta, 2019)

Assays:
hCMEC/D3 cells = format: in vitro ADME, human; details: either individually or in combination, p<0.05, two-way ANOVA
[1] = cited from earlier work

Question: For `C[C@@H]1CCO[C@H]2Cn3cc(C(=O)NCc4ccc(F)cc4F)c(=O)c(O)c3C(=O)N12` [Dolutegravir], which “Intracellular accumulation compared with tenofovir or emtricitabine” value (hCMEC/D3 cells) is on record?
Answer: significantly higher

Question: And the LogP [1]?
Answer: 1.10
